Laboratory results published in patent publication US20070207202A1, “PHARMACEUTICAL FORMULATIONS OF A MONOHYDRATE CRYSTAL FORM OF 2-(3-FLUORO-4-HYDROXYPHENYL)-7-VINYL-1,3-BENZOXAZOL-5-OL” (Wyeth, priority 2006, published 2007).

Tests used:
Format in all cases: physicochemical
[1] = Dynamic vapor sorption (hygroscopicity); settings: for DVS gain: 0–90% RH
From the text: Dynamic Vapor Sorption (Allentown, Pa.) was used to measure the hygroscopicity of the anhydrate and monohydrate of the invention (see FIGS. 6 and 7). The step conditions were three hours each at 0%, 30%, 52.5%, 75% and 90% RH, two full cycles.

[2] = Separate long term study of micronized and non-micronized anhydrate (XRPD)
[3] = Water solubility of the two crystal forms
[4] = Short term stability of crystal form (XRPD)
[5] = Medium term stability of crystal form (XRPD and TGA)
Method: Samples of monohydrate were stored at room temperature, 56° C., and 70° C. for one week. At room temperature, humidity was maintained at 0% RH. Humidity was not controlled for the higher temperatures.
The samples were analyzed by XRPD and TGA.

[6] = Long term stability of crystal forms (XRPD, TGA, HPLC); settings: non-micronized, 40° C./75% RH (monohydrate also 40° C. without humidity control), three months
Method: Non-micronized samples of monohydrate and anhydrate were stored at 40° C./75% RH for three months. The monohydrate was also stored at 40° C. without humidity control. During the three months, the samples were checked after two weeks, one month, two months, and three months.

SMILES	DVS gain ([1]; listed as anhydrous crystal form)	crystal form transformation by XRPD ([2]; micronized samples, 25° C./60% RH, three months)	crystal form transformation by XRPD ([2]; micronized samples, 40° C./75% RH, one month)	crystal form transformation by XRPD ([2]; non-micronized samples, 40° C./75% RH)	water solubility compared between the two forms (in words) [3]	hygroscopicity (DVS weight gain, in words) [1]	DVS gain ([1]; listed as monohydrate crystal form)	crystal form stability by XRPD ([4]; 70° C., one hour)	crystal form stability by XRPD ([4]; 90° C., one half hour)	crystal form stability by XRPD ([4]; 90° C., one hour)	crystal form stability by XRPD and TGA ([5]; 56° C., humidity not controlled, one week)	crystal form stability by XRPD and TGA ([5]; 70° C., humidity not controlled, 1 day)	crystal form stability by XRPD and TGA ([5]; 70° C., humidity not controlled, 4 days)	crystal form stability by XRPD and TGA ([5]; 70° C., humidity not controlled, 7 days)	crystal form stability by XRPD and TGA ([5]; room temperature, 0% RH, one week)	chemical stability by HPLC [6]	crystal form transformation by XRPD and TGA [6]
C=Cc1cc(O)cc2nc(-c3ccc(O)c(F)c3)oc12 [anhydrate, 2-(3-fluoro-4-hydroxyphenyl)-7-vinyl-1,3-benzoxazol-5-ol]	0.2% gain (0–90% RH)	did not transform to the monohydrate	partially transform to the monohydrate	did not show any obvious transformation	–	–	–	–	–	–	–	–	–	–	–	–	–
C=Cc1cc(O)cc2nc(-c3ccc(O)c(F)c3)oc12 [monohydrate, 2-(3-fluoro-4-hydroxyphenyl)-7-vinyl-1,3-benzoxazol-5-ol]	–	–	–	–	significantly lower solubility than the anhydrate	largely non-hygroscopic	0.1% gain (0–90% RH)	stable	partially dehydrated	completely dehydrated	no obvious dehydration	no obvious hydration	partially dehydrated	mostly dehydrated	no obvious dehydration	chemically stable	did not transform
